Experiments:
PTPN2 [1] = target: T1, PTPN2 (Homo sapiens, UniProt P17706); experiment: PTPN2 biochemical assay (PhosphoSens, substrate AQT0264); conditions: PhosphoSens substrate AQT0264 20 μM, room temperature; read-out: PTPN2 BCHEM IC50
T1 sequence (P17706 1-415): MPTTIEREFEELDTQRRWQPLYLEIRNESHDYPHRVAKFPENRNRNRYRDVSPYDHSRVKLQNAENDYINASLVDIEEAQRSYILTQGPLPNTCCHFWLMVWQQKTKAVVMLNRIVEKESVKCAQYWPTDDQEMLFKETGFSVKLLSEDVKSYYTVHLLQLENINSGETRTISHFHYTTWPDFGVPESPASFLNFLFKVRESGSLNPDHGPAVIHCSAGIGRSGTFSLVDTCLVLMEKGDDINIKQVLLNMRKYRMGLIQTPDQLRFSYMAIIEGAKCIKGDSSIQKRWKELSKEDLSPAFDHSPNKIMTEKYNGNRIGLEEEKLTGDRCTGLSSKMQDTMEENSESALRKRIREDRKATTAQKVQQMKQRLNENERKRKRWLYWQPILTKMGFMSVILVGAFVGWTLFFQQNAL
Procedure: A PhosphoSens® kinase assay was performed as described by the vendor (AssayQuant Technologies, Marlborough, MA). Briefly, 1000× solutions of compounds were prepared in DMSO via serial dilution of the 10 mM DMSO stocks using 3-fold intervals in a 384-well reagent plate. 50 nL of the compound dilution series was then added to the corresponding wells of a 384-well assay plate. 40 mL of 1.25× substrate (AQT0264) in 1× assay buffer (50 mM HEPES pH 7.5, 500 μM EGTA, […] MgCl2, 0.01% Brij-35, 1% Glycerol, 1 mM DTT, and 0.2 mg/mL BSA) was transferred to each well of the assay plate to achieve a final substrate concentration of 20 μM. Finally, […] of 5×PTPN2 enzyme stock was added to each well of the assay plate for a final enzyme concentration of […]. Reaction progress curves were collected by sampling fluorescence intensity at the excitation wavelength 360 nm (λex360) and emission wavelength 480 nm (λem480) every 71 seconds for one hour using a Synergy H4 plate reader (BioTek Instruments/Agilent Technologies, Winooski, VT) at room temperature.
(§1) For IC50 data, High DDT concentration and/or DiFMUP substrate assays were used; a skilled artisan may use either assay.

phospho-STAT1 (Tyr701) = experiment: Phospho-STAT1 (Tyr701) HTRF assay in B16-F10 cells; type: cell-based; conditions: mouse IFN-gamma 100 ng/ml, 1 hour, read-out: pSTAT1 HTRF B16 EC50
Procedure: B16-F10 cells (ATCC, Manassas, VA, #CRL-6475) were cultured in DMEM growth medium (ThermoFisher Scientific, Waltham, MA, #11995-040) supplemented with 10% heat inactivated FBS (ThermoFisher Scientific, #16140-071) and 1% pen/strep (ThermoFisher Scientific, #15140-122). The cells were seeded into a white opaque 384-well tissue culture treated microplate (PerkinElmer, Waltham, MA, #6007688) at a density of 10,000 cells/well in 20 uL total volume and incubated overnight at 37 C and 5% CO2. 30 nL of compounds dissolved in DMSO were then transferred from a source plate into target wells with the Echo650 acoustic liquid handler (Beckman Coulter, Indianapolis, IN). Negative control wells received 30 nL of DMSO only (0.15% final concentration). Plates were returned to the incubator for 1 hour and then cells treated with either 5 uL of growth medium or 5 uL of growth medium containing 500 ng/ml of recombinant mouse IFN-gamma protein (R&D Systems, Minneapolis, MN, #485-MI/CF, 100 ng/ml final concentration) using the Assist automated pipetting platform (INTEGRA Biosciences, Hudson, NH). Plates were incubated at 37 C for 1 hour and assayed for phosphorylated STAT1 protein levels with the phospho-STAT1 (Tyr701) HTRF kit (Cisbio, Bedford, MA, #63ADK026PEH) according to manufacturer's instructions. HTRF signal intensity was collected with the En Vision 2105 plate reader (PerkinElmer) 24 hours later and analyzed with the Dotmatics software platform to calculate compound IC50 values.

B16-F10 cells = experiment: Cell proliferation assay (CellTiter-Glo) in B16-F10 cells with IFN-gamma; type: cell-based; conditions: 120 h, mouse IFN-gamma 10 ng/mL, read-out: PTPN2 Prolif 5d B16F10 EC50
Procedure: B16-F10 cells (ATCC, Manassas, VA, #CRL-6475) were cultured in DMEM growth medium (ThermoFisher Scientific, Waltham, MA, #11995-040) supplemented with 10% heat inactivated FBS (ThermoFisher Scientific, #16140-071) and 1% pen/strep (ThermoFisher Scientific, #15140-122). The cells were seeded into two white opaque 384-well tissue culture treated microplates (PerkinElmer, Waltham, MA, #6007688) at a density of 100 cells/well in 20 uL total volume and incubated overnight at 37 C and 5% CO2. 30 nL of compounds dissolved in DMSO were then transferred from a source plate into target wells with the Echo650 acoustic liquid handler (Beckman Coulter, Indianapolis, IN). Negative control wells received 30 nL of DMSO only (0.15% final concentration). Plates were returned to the incubator for 1 hour and then cells treated with either 5 uL of growth medium or 5 uL of growth medium containing 50 ng/ml of recombinant mouse IFN-gamma protein (R&D Systems, Minneapolis, MN, #485-MI/CF, 10 ng/mL final concentration) using the Assist automated pipetting platform (INTEGRA Biosciences, Hudson, NH). Plates were incubated at 37 C for 4 days and cell proliferation assayed with the CellTiter-Glo reagent (Promega, Madison, WI, #G7573, 25 uL per well). […] Off-target compound mediated cytotoxicity was identified by checking for growth inhibition in the absence of IFNg.

PTPN2 [2] = target: T1, PTPN2; experiment: Phosphatase activity assay using DiFMUP as substrate; type: biochemical; set-up: purchased MilliporeSigma SRP5075; conditions: 10 mM DTT, PTPN2 0.15 nM, room temperature, read-out: PTPN2 BCHEM DIFMUP IC50
Procedure: The PTPN2 biochemical assay was performed as follows, a 5× stock solution of human PTPN2 (SRP5075, MilliporeSigma, Burlington, MA) and a 1.25× stock solution of DiFMUP (D6567, ThermoFisher Scientific, Waltham, MA), were prepared in 1× reaction buffer consisting of 50 mM HEPES, pH 7.4, 1 mM EDTA, 150 mM NaCl, 0.2 mg/mL BSA, 100 U/mL catalase and 10 mM DTT. […] of the DiFMUP substrate solution, for a final concentration of […] DiFMUP substrate, was added to a Corning 3574 384-well, white, non-binding surface microtiter plate containing […] of serially diluted test compounds prepared in DMSO. The reactions were started with the addition of […] of the enzyme solution, for a final PTPN2 concentration of 0.15 nM, and monitored every 105 seconds for 60 minutes at λEX 360/λEM 460 in a BioTek Synergy HTX plate reader (Agilent Technologies, Santa Clara, CA) at room temperature. The initial linear portions of the progress curves were fit according to a linear equation to yield the slopes and converted to % inhibition based on a value of 100% activity for the no inhibitor treated control. IC50 values of each compound were obtained by fitting the % inhibition-compound concentration curves using Dotmatics software (Dotmatics, Bishops Stortford, Hertfordshire, England)
as §1

Row | Compound | IC50 (PTPN2 [1]) [nM] | EC50 (phospho-STAT1 (Tyr701)) [nM] | EC50 (B16-F10 cells) [nM] | IC50 (PTPN2 [2]) [nM]
1 | O=C1CN(c2c(O)cc(CNc3ccc(C4CC4)nc3)cc2F)S(=O)(=O)N1 [EXAMPLE 10, 5-[4-[[(6-cyclopropyl-3-pyridyl)amino]methyl]-2-fluoro-6-hydroxy-phenyl]-1,1-dioxo-1,2,5-thiadiazolidin-3-one] | 10 | 650 | 410 | 100
2 | Cc1cncc(NCc2cc(O)c(N3CC(=O)NS3(=O)=O)c(F)c2)n1 [EXAMPLE 16, 5-[2-fluoro-6-hydroxy-4-[[(6-methylpyrazin-2-yl)amino]methyl]phenyl]-1,1-dioxo-1,2,5-thiadiazolidin-3-one] | 1 | 690 | 1730 | 30
3 | Cc1c(NCc2cc(O)c(N3CC(=O)NS3(=O)=O)c(F)c2)ccnc1-c1ccc(C(C)(C)C)cc1 [EXAMPLE 15, 5-[4-[[[2-(4-tert-butylphenyl)-3-methyl-4-pyridyl]amino]methyl]-2-fluoro-6-hydroxy-phenyl]-1,1-dioxo-1,2,5-thiadiazolidin-3-one] | 30 | > 15000 | > 15000 | 30
4 | Cc1nccc(NCc2cc(O)c(N3CC(=O)NS3(=O)=O)c(F)c2)n1 [EXAMPLE 24, 5-[2-fluoro-6-hydroxy-4-[[(2-methylpyrimidin-4-yl)amino]methyl]phenyl]-1,1-dioxo-1,2,5-thiadiazolidin-3-one] | 30 | 790 | 4280 | 30
5 | COc1nc(NCc2cc(O)c(N3CC(=O)NS3(=O)=O)c(F)c2)cnc1C [EXAMPLE 25, 5-[2-fluoro-6-hydroxy-4-[[(6-methoxy-5-methyl-pyrazin-2-yl)amino]methyl]phenyl]-1,1-dioxo-1,2,5-thiadiazolidin-3-one] | – | 3430 | 11300 | 20
6 | O=C1CN(c2c(O)cc(CNc3cnccc3-c3ccc(C(F)(F)F)cc3)cc2F)S(=O)(=O)N1 [EXAMPLE 30, 5-[2-fluoro-6-hydroxy-4-[[[4-[4-(trifluoromethyl)phenyl]-3-pyridyl]amino]methyl]phenyl]-1,1-dioxo-1,2,5-thiadiazolidin-3-one] | – | > 15000 | > 15000 | 60
7 | Cc1ccc(NCc2cc(O)c(N3CC(=O)NS3(=O)=O)c(F)c2)nn1 [EXAMPLE 28, 5-(2-fluoro-6-hydroxy-4-(((6-methylpyridazin-3-yl)amino)methyl)phenyl)-1,2,5-thiadiazolidin-3-one 1,1-dioxide] | – | 250 | 630 | 20
8 | CC(C)c1cnc(NCc2cc(O)c(N3CC(=O)NS3(=O)=O)c(F)c2)nc1 [EXAMPLE 11, 5-[2-fluoro-6-hydroxy-4-[[(5-isopropylpyrimidin-2-yl)amino]methyl]phenyl]-1,1-dioxo-1,2,5-thiadiazolidin-3-one] | 140 | 1770 | 6020 | –
9 | N#Cc1ncc(NCc2cc(O)c(N3CC(=O)NS3(=O)=O)c(F)c2)cn1 [EXAMPLE 32, 5-((4-(1,1-dioxido-4-oxo-1,2,5-thiadiazolidin-2-yl)-3-fluoro-5-hydroxybenzyl)amino)pyrimidine-2-carbonitrile] | – | 730 | 1380 | 1
10 | COc1cnc(C)c(NCc2cc(O)c(N3CC(=O)NS3(=O)=O)c(F)c2)n1 [EXAMPLE 21, 5-[2-fluoro-6-hydroxy-4-[[(6-methoxy-3-methyl-pyrazin-2-yl)amino]methyl]phenyl]-1,1-dioxo-1,2,5-thiadiazolidin-3-one] | – | 7860 | 7770 | 20
11 | Cc1cc(C)nc(NCc2cc(O)c(N3CC(=O)NS3(=O)=O)c(F)c2)n1 [EXAMPLE 29, 5-[4-[[(4,6-dimethylpyrimidin-2-yl)amino]methyl]-2-fluoro-6-hydroxy-phenyl]-1,1-dioxo-1,2,5-thiadiazolidin-3-one] | – | 760 | 4770 | 60
